According to ChEMBL document CHEMBL5352411, “Synthesis and investigation of the trypanocidal potential of novel 1,2,3-triazole-selenide hybrids” (Eur J Med Chem, 2022):

Legend:
[1] = Cytotoxicity against HFF-1 cells incubated for 72 hrs by MTS tetrazolium assay; format: toxicity, cell-based; settings: human
Trypanosoma cruzi = test: Antitrypanosomal activity against intracellular amastigote form of Trypanosoma cruzi Tulahuen expressing Escherichia coli LacZ gene infected in HFF-1 cells incubated for 120 hrs by automated microplate reader; format: functional, organism-based; settings: HFF-1, 120 h
[2] = Selectivity index, ratio of CC50 for HFF-1 cells to IC50 for intracellular amastigote form of Trypanosoma cruzi Tulahuen expressing Escherichia coli LacZ gene infected in HFF-1 cells; format: toxicity; settings: human, read-out: Selectivity Index
[3] = Electrochemical behavior of the compound assessed as oxidation onset potential by cyclic voltammetry analysis relative to normal hydrogen electrode; format: physicochemical
[4] = Electrochemical behavior of the compound assessed as reduction onset potential by cyclic voltammetry analysis relative to normal hydrogen electrode; format: physicochemical

Row | SMILES | CC50 at 72 h [1] [µM] | IC50 (Trypanosoma cruzi) [µM] | selectivity ratio [2] | Ep [3] [V] | Ep [4] [V]
1 | c1ccc(-n2cc(C[Se]c3cccs3)nn2)cc1 | 43.1 | 15.6 | 2.8 | 1.22 | –
2 | Cc1ccccc1-n1cc(C[Se]c2ccccc2)nn1 | – | 9.8 | > 6.5 | 0.83 | –
3 | c1ccc(-n2cc(C[Se]c3cccc4ccccc34)nn2)cc1 | > 64 | 3.1 | > 20.6 | 0.96 | -0.82
4 | Cc1cc(C)c([Se]Cc2cn(-c3ccccc3)nn2)c(C)c1 | – | 39.2 | – | 1.03 | –
5 | O=C(Cn1ccnc1[N+](=O)[O-])NCc1ccccc1 [BENZNIDAZOLE] | > 64 | 2.1 | > 30.5 | – | –
6 | Clc1ccccc1-n1cc(C[Se]c2ccccc2)nn1 | > 64 | 15.2 | > 4.2 | 0.83 | –
7 | Cc1ccc(-n2cc(C[Se]c3ccccc3)nn2)cc1 | > 64 | 9.3 | > 6.9 | 0.85 | –
8 | c1ccc([Se]Cc2cn(-c3ccccc3)nn2)cc1 | 48 | 8.2 | 5.9 | 0.79 | –
9 | O=[N+]([O-])c1ccc(-n2cc(C[Se]c3ccccc3)nn2)cc1 | – | > 64 | – | 0.9 | -1.11
10 | c1ccc(SCc2cn(-c3ccccc3)nn2)cc1 | – | 21.2 | – | 1.06 | –
11 | Cc1ccc([Se]Cc2cn(-c3ccccc3)nn2)cc1 | 56.1 | 7.4 | 8.4 | 0.81 | –
12 | Cc1cccc(-n2cc(C[Se]c3ccccc3)nn2)c1 | > 64 | 9.2 | > 7 | 0.84 | –
13 | FC(F)(F)c1cccc([Se]Cc2cn(-c3ccccc3)nn2)c1 | > 64 | 5.4 | > 11.9 | 0.97 | -0.92
14 | COc1ccc(-n2cc(C[Se]c3ccccc3)nn2)cc1 | > 64 | 12.7 | > 5 | 0.75 | –
15 | Clc1ccc([Se]Cc2cn(-c3ccccc3)nn2)cc1 | > 64 | 16.8 | 3.3 | 0.84 | –
16 | Fc1ccc([Se]Cc2cn(-c3ccccc3)nn2)cc1 | 62.5 | 11.6 | > 5.5 | 0.76 | –
17 | Clc1ccc(-n2cc(C[Se]c3ccccc3)nn2)cc1 | > 64 | 11.5 | > 5.6 | 0.81 | –
